Measured values: patent publication US7037489B2, “Skin external agents and drugs” (Kanebo Cosmetics, Inc., priority 1999, dated 2006)
Structures can show the parent of a compound that is named as a salt. One block for each compound: values may come before it.

Tests used:
[1] = test system: skin of Hartley strain guinea pig; assay: Test 2 safety (sensitization) maximization test; assay type: in vivo; details: for Positivity: 3% induction, examined after 48 hours; for sensitizing potential: in words
Method: Safety (sensitization) was evaluated by a maximization test. An area of 4×6 cm^2 of skin on the scapula of a Hartley strain guinea pig (female) weighing 350 to 400 g was shaved and given intradermal injections with each three injections in two lines according to the following procedures: • (1)each 0.05 mL of Freunds' Complete Adjuvant (hereinafter simply called FCA) was intradermally injected at each one spot in the right and left sites. • (2) each 0.05 mL of a 3% fumaric acid diester derivative solution in ethanol of as a test sample was intradermally injected at another each one spot in the right and left sites. • (3) to a 6% fumaric acid diester derivative solution in FCA as a test sample, the same amount of sterilized water was added and resultant emulsified solution was intradermally injected at a right side and a left side sites in an amount of 0.05 mL.
At one week after the aforementioned procedures, the skin of the same sites was shaved and 10% of sodium lauryl sulfate in vaseline was applied to cause light inflammation. After 24 hours from the application, 0.2 mL of a 3% fumaric diester derivative solution in ethanol as a test sample, which was applied on a piece of gauze, was patched close on the same sites for 48 hours. On the 21st day after the intradermal injection, the abdominal area was shaved, to which a solution of a fumaric acid diester derivative in ethanolas a test sample, which was applied in a piece of gauze, was patched close for 24 hours. The symptoms in the skin were visually examined according to the following criteria after 48 hours.

[2] = test system: hairless mouse dorsal skin (epidermal permeability barrier function disrupted by UVB); assay: Test 1 epidermal permeability barrier function amelioration test (TEWL after UVB); assay type: in vivo, hairless mice (Hos: Hr-1); details: for TEWL change rate 3rd day / TEWL change rate 4th day: mean values
Method: An effect of improving epidermal permeability barrier function by applying the agents on the skin of which epidermal permeability barrier function has been disrupted was evaluated by the following test method. Male hairless mice (Hos: Hr-1) of 10 weeks old at the beginning of the test were used with each 5 mice per group. Transepidermal water loss (TEWL) was measured as follows using a continuous perspiration measurement device, Hydrograph AMU-100 (ex K & S Co., Ltd.). […] The amount of water vapor in the nitrogen gas was measured before the gas was fed to the capsule and after it was recovered from the capsule. […] The TEWL of the hairless mouse dorsal skin was first measured at the beginning of the test. Subsequently, 0.05 mL of each sample was applied on an area of approximately 2.5 cm diameter in the dorsal skin of the hairless mice once a day from Monday to Friday (pre-application). Then, on the third day from the last day of the pre-application, the skin was irradiated once with ultraviolet B ray (UVB) at a dose of 0.15 J/cm^2. […] TEWL changes with the degree of disruption of the epidermal permeability barrier function. A higher value of TEWL change rate implies a greater degree of disruption of the epidermal permeability barrier function. In the case of the application of the base alone, disruption in the epidermal permeability barrier function by UVB was similar to that in the case of non-application.

HB-EGF mRNA = assay: Test Example 4 HB-EGF expression rate in keratinocytes (Northern blotting); assay type: cell-based, human; details: for Amount of mRNA, % relative to the control, HB-EGF: 24 hours, human keratinocytes
Text: (§1) The HB-EGF expression rates were investigated by the following test methods where the compounds of the present invention were applied on the keratinocytes. Cultured keratinocytes of human epidermis origin, commercially available from Kurabo Corporation, were used. Keratinocyte susupension was adjusted to a concentration of 400×10^4 units/mL on an MCDB153 culture medium supplemented with BPE (bovine pituitary extract), insulin, ethanolamine, phosphoethanolamine, and hydrocortisone as growth promotors. Four milliliters of the cell suspension was inoculated to a 60 mm plate (ex Falcon Corporation). […] This plate was subjected to static culturing at 37° C. for 24 hours under an atmosphere consisting of 95% (v/v) air and 5% (v/v) carbon dioxide gas. Using a QIAGEN™ RNA kit, whole mRNA was extracted. […] The amount of each mRNA per total in the absence of the fumarate was measured as the control. The amount of mRNA in the presence of the fumarate was expressed in % relative to those of the control.

G3PDH mRNA [3] = assay: Test Example 4 G3PDH mRNA in keratinocytes (Northern blotting); assay type: cell-based; details: 24 hours, human keratinocytes
Text: as §1

amphiregulin mRNA [4] = assay: Test Example 6 inhibition of the expression of amphiregulin in keratinocytes; assay type: cell-based; details: 24 hours, human keratinocytes
Method: (§2) The amount of expression of amphiregulin in the keratinocytes was determined by the following test method. Cultured keratinocytes of human epidermis origin (ex Kurabo Corporation) were used. Keratinocyte suspension was adjusted to a concentration of 150×10^4 units/mL in an MCDB153 culture medium supplemented with BPE (bovine pituitary extract), insulin, ethanolamine, phosphoethanolamine, and hydrocortisone as growth promotors. Four milliliters of the cell suspension was inoculated to a 60 mm plate (ex Falcon Corporation). […] This plate was subjected to static culturing at 37° C. for 24 hours under an atmosphere consisting of 95% (v/v) air and 5% (v/v) carbon dioxide gas. Using a QIAGEN™ RNA kit, whole mRNA was extracted. […] The amount of each mRNA per total in the absence of the fumarate was measured as the control. The amount of mRNA in the presence of the fumarate was expressed in % relative to those of the control. (2) Results

G3PDH mRNA [5] = assay: Test Example 6 G3PDH mRNA in keratinocytes; assay type: cell-based; details: 24 hours, human keratinocytes
Method: as §2

[6] = test system: dorsal skin of hairless mice; assay: Test Example 8 inhibition of dry skin induced by retinoic acid (TEWL); assay type: in vivo
Method: The effect of inhibiting dry skin was investigated by the following test method in which the present fumarate was applied to the dry skin induced by retinoic acid. Hairless mice of 10 weeks old at the beginning of the test were used with five mice per group. […] Subsequently, 0.05 mL of a 0.05% retinoic acid solution in 50% ethanol aqueous solution was applied once a day for 4 days. During these 4 days, retinoic acid was applied in the morning, and, some hours later in the afternoon, the sample was applied. […] In Comparative Example 5, a control sample comprising the base alone was used instead of the sample. In Comparative Example 6, the base was always applied. The TEWL values after the application of the samples are as shown below.

[7] = test system: dorsal skin of hairless mice; assay: Test Example 9 depression of UV-induced epidermal hyperproliferation; assay type: in vivo; details: 0.5% in 50% ethanol, 4 weeks pre-application, UVB 0.15 J/cm^2, 4th day after the irradiation; mean values
Method: The inhibition of epidermal hyperproliferation was investigated by the following test method in which the present fumarate was applied to the skin where epidermal hyperproliferation had been induced by UV irradiation Hairless mice of 10 weeks old at the beginning of the test were used with 5 mice per group. […] The animals were slaughtered on the 4th day after the irradiation and skin section were made. From the section, tissue section samples were prepared by HE staining. The samples prepared were photographed using an light microscope. In the microscopic photographs, the thickness of the epidermis was measured. Using the epidermis thickness at the beginning of the test as a standard, the mean values were compared between the control group and the treated groups.

amphiregulin mRNA [8] = assay: Test Example 7 inhibition of amphiregulin expression when used together with retinoic acid; assay type: cell-based, human; details: retinoic acid alone 1 μmol/L, 24 hours
Method: (§3) The amount of amphireglurin expression in the presence of retinoic acid in the keratinocytes was determined by the following method.
(§4) Cultured keratinocytes of human epidermis origin (ex Kurabo Corporation) were used.
(§5) Keratinocyte suspensions was adjusted to a concentration of 400×10^4 units/mL in an MCDB153 culture medium supplemented with BPE (bovine pituitary extract), insulin, ethanolamine, phosphoethanolamine, and hydrocortisone as growth promotors. Four milliliters of the cell suspension was inoculated to a 60 mm plate (ex Falcon Corporation). Under an atmosphere of 95% (v/v) air and 5% (v/v) carbon dioxide gas, a confluent state was achieved by static culturing at 37° C. for 3 days, while refreshing the culture every other day.
(§6) After removing the culture medium supernatant by suction, the culture medium was replaced with an MCDB 153 culture medium (containing insulin) to which bis(diethylene glycol monoethyl ether) fumarate at a final concentration of 300 μmol/L or dimethyl fumarate at 70 μmol/L, and optionally retinoic acid at 1 μmol/L had been added. This plate was subjected to static culturing at 37° C. for 24 hours under an atmosphere consisting of 95%(v/v) air and 5% (v/v) carbon dioxide gas. Using a QIAGEN™ RNA kit, whole mRNA was extracted.

G3PDH mRNA [9] = assay: Test Example 7 G3PDH mRNA in keratinocytes with retinoic acid; assay type: cell-based, human; details: retinoic acid alone 1 μmol/L, 24 hours
Method: as §3, §4, §5, §6

[10] = test system: dorsal skin of aged hairless mice
Method: The following test method was used in order to investigate inhibition of reduction in the epidermis thickness when the compound of the present invention was applied on aged skin.
Experimental animals used included 2 groups of aged hairless mice of 33 weeks old at the beginning of the test with each 5 mice per group, and one group of 5 hairless mice of 9 weeks old at the beginning of the test.
A sample was prepared by adding bis(diethylene glycol monoethyl ether) fumarate to a 50% ethanol aqueous solution (base) at a concentration of 0.5%. This sample was applied in an amount of 0.05 mL on the dorsal skin of hairless mice (in a diameter of approximately 2.5 cm) once a day for consecutive 5 days per week followed by 2 days interval. This schedule was repeated for 4 weeks. Subsequently, a portion of the skin was sampled and a frozen section was prepared. The thickness of the epidermis was measured by microscopic observation.

[11] = Table 1, concentration 1% in 50% aqueous ethanol, 0.05 mL once a day, 3rd day after UVB 0.15 J/cm^2
[12] = Table 1, concentration 1% in 50% aqueous ethanol, 4th day after UVB 0.15 J/cm^2
[13] = 0.5% sample 5 days pre-application, then 0.05% retinoic acid once a day for 4 days with sample in the afternoon

Compound: CCOC(=O)/C=C/C(=O)OCC [Diethyl fumarate]
Positivity [1]: 90% | sensitizing potential [1]: sensitizating potential

Compound: COC(=O)/C=C/C(=O)OC [Dimethyl fumarate, reference compound]
TEWL change rate 3rd day [2, 11]: 3.24 | TEWL change rate 4th day [2, 12]: 2.50 | Amount of mRNA, % relative to the control, HB-EGF (HB-EGF mRNA; 50 μmol/L): 470% | Amount of mRNA, % relative to the control, G3PDH (G3PDH mRNA [3]; 50 μmol/L): 105% | Amount of mRNA, % relative to the control, Amphiregulin (amphiregulin mRNA [4]; 70 μmol/L): 39% | Amount of mRNA, % relative to the control, G3PDH (G3PDH mRNA [5]; 70 μmol/L): 98% | Mean value of TEWL [6, 13]: 0.063 mg/cm^2/min. | Thickness of the epidermis [7]: 40.4 μm

Mean value of TEWL ([6]; 0.05% retinoic acid once a day for 4 days, base alone instead of the sample (no fumarate)): 0.110 mg/cm^2/min.
Compound: CC1=C(/C=C/C(C)=C/C=C/C(C)=C/C(=O)O)C(C)(C)CCC1 [Retinoic acid]
Amount of mRNA, % relative to the control, Amphiregulin (amphiregulin mRNA [8]): 300% | Amount of mRNA, % relative to the control, G3PDH (G3PDH mRNA [9]): 105%

Compound: CCOCCOCCOC(=O)/C=C/C(=O)OCCOCCOCC [bis(diethylene glycol monoethyl ether) fumarate]
TEWL change rate 3rd day [2, 11]: 3.25 | TEWL change rate 4th day [2, 12]: 2.49 | TEWL change rate 3rd day ([2]; Table 2, first value column, concentration 0.001%): 7.01 | TEWL change rate 3rd day ([2]; Table 2, first value column, concentration 0.01%): 6.46 | TEWL change rate 3rd day ([2]; Table 2, first value column, concentration 0.1%): 3.79 | TEWL change rate 3rd day ([2]; Table 2, first value column, concentration 1%): 3.62 | TEWL change rate 3rd day ([2]; Table 2, second value column, concentration 0.001%): 7.31 | TEWL change rate 3rd day ([2]; Table 2, second value column, concentration 0.01%): 6.84 | TEWL change rate 3rd day ([2]; Table 2, second value column, concentration 0.1%): 5.21 | TEWL change rate 3rd day ([2]; Table 2, second value column, concentration 1%): 4.33 | amelioration of epidermal permeability barrier function ([2]; in words, compared to the base alone and diphenylethyl fumarate): clearly reduces disruption in the epidermal permeability barrier function by UVB | Positivity [1]: 0% | sensitizing potential [1]: no sensitizing potential | Amount of mRNA, % relative to the control, HB-EGF (HB-EGF mRNA; 300 μmol/L): 380% | induction of HB-EGF expression (HB-EGF mRNA; in words, 300 μmol/L): induced the expression of HB-EGF as strongly as dimethyl fumarate | Amount of mRNA, % relative to the control, G3PDH (G3PDH mRNA [3]; 300 μmol/L): 98% | Mean values of the epidermis thickness ([10]; 33 weeks old hairless mice, 0.5% in 50% ethanol, 0.05 mL once a day 5 days per week for 4 weeks): 20.96 μm | inhibition of thinning of the epidermis due to aging ([10]; in words, compared to the non-treatment): thinning of the epidermis due to aging was clearly inhibited | Amount of mRNA, % relative to the control, Amphiregulin (amphiregulin mRNA [4]; 300 μmol/L): 8% | Amount of mRNA, % relative to the control, G3PDH (G3PDH mRNA [5]; 300 μmol/L): 102% | Mean value of TEWL [6, 13]: 0.055 mg/cm^2/min. | Thickness of the epidermis [7]: 61.6 μm

Compound: COCCOC(=O)/C=C/C(=O)OCCOC [bis(ethylene glycol monomethyl ether) fumarate]
Positivity [1]: 90% | sensitizing potential [1]: sensitizating potential

Compound: Diphenylethyl fumarate [reference compound]
TEWL change rate 3rd day ([2]; Table 1, concentration printed '.1I' %, 3rd day after UVB): 7.82 | TEWL change rate 4th day ([2]; Table 1, concentration printed '.1I' %, 4th day after UVB): 6.57
